# Assay results as given in paper PMC10367051, “Comprehensive Mechanistic View of the Hydrolysis of Oxadiazole-Based Inhibitors by Histone Deacetylase 6 (HDAC6)” (ACS Chemical Biology, 2023).
# Experiments:
# [1] = target: T1, HDAC6 (Homo sapiens, UniProt Q9UBN7); test: Fluorometric HDAC inhibition assay, HDAC6; type: biochemical; conditions: for IC50: purified human protein, Ac-Gly-Ala-[Lys-Ac]-AMC substrate 10 μM, 15 min preincubation; for fold more potent compared to the hydrazide product 4: HDAC6 potency ratio
# T1 construct: TwinStrep-FLAG-HALO (N, cleaved yes); made in house; host or cells: HEK293/T17
# T1 sequence (Q9UBN7 1-1215): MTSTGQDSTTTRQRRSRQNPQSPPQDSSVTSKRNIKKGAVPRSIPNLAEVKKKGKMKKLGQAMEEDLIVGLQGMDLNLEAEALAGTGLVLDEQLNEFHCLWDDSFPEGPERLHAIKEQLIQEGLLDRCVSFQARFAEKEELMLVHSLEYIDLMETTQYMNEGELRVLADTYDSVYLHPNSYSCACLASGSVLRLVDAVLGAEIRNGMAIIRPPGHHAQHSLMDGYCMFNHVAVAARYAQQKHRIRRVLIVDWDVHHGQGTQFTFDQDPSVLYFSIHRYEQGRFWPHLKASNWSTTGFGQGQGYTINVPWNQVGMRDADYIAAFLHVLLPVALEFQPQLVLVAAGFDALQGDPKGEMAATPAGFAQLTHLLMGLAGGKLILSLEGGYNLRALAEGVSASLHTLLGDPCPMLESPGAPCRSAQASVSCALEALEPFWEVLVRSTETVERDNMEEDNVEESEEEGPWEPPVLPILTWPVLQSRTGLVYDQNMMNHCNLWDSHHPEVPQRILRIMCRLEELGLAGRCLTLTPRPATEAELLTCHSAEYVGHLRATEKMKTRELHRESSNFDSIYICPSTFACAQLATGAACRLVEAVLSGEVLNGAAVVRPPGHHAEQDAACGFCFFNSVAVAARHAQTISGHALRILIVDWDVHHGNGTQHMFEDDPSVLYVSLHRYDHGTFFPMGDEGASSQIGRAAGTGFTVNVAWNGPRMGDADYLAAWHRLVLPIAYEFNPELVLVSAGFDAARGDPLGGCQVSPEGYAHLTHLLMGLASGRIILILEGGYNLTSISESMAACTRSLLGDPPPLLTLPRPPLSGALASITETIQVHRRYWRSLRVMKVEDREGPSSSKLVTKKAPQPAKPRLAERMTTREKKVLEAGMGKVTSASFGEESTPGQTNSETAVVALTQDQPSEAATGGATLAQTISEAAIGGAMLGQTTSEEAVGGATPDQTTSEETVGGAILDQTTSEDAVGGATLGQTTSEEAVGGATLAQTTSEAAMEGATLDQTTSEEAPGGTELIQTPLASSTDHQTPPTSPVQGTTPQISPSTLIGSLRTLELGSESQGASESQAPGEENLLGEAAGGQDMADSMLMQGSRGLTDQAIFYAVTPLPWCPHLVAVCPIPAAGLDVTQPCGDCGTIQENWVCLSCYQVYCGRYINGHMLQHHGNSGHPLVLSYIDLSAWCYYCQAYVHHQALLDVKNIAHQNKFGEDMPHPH
# Procedure: (§1) Large-scale expression of recombinant human HDACs was carried out as described previously.[32],[37] Briefly, HEK293/T17 cells were transiently transfected with expression pMM222 plasmids comprising N-terminally tagged (TwinStrep-FLAG-HALO tag; Figure S1) HDAC genes using linear poly(ethyleneimine) (PEI, Polysciences Inc.). Cells were harvested three days post-transfection, and cell pellets were resuspended in the lysis buffer (100 mM Tris-HCl, 10 mM NaCl, 5 mM KCl, 2 mM MgCl2, and 10% glycerol at pH 8.0). Cells were disrupted by sonication, cell lysates were cleared by centrifugation, and soluble fusion proteins were first purified by Streptactin affinity chromatography (IBA). For all HDACs but HDACs 1, 10, and 11, the N-terminal tag was cleaved off overnight by the addition of TEV protease (10:1 HDAC/TEV ratio). Size-exclusion chromatography on a Superose 6 column (GE Healthcare Bio-Sciences; running buffer 30 mM HEPES, 140 mM NaCl, 10 mM KCl, 3% glycerol, and 0.25 mM TCEP) was used as the final purification step for all HDAC constructs.
# (§2) Optimized fluorometric assays were used to determine inhibition constants of studied compounds against individual HDAC isoforms as described previously.[32] Briefly, reactions were performed in the activity buffer comprising 50 mM HEPES, 140 mM NaCl, and 10 mM KCl at pH 7.4 supplemented with 1 mg mL^–1 bovine serum albumin (BSA), 1 mM tris(2-carboxyethyl)phosphine (TCEP), 10 μM substrates, and optimized concentrations of HDACs. The Ac-Gly-Ala-[Lys-Ac]-7-amino-methylcoumarylamide (AMC) substrate was used to profile HDACs 1, 2, 3, and 6; Boc-[Lys-TFA]-7-amino-methylcoumarylamide was used for HDACs 4, 5, 7, 8, and 9 (both substrates: Bachem); fluorescein-labeled N8-acetylspermidine was used for HDAC10;[32] and an internally quenched TNFα-derived peptide derivative was used for HDAC11.[39] Deacetylation reactions were monitored either by high-performance liquid chromatography (HPLC) (HDAC10) or by quantification of released AMC (λex/λem = 365/440 nm) using a CLARIOstar plate reader (BMG Labtech GmbH).
# [2] = target: T2, HDAC11 (Homo sapiens, UniProt Q96DB2); test: HDAC11 inhibition assay (internally quenched peptide); type: biochemical; conditions: purified human protein; internally quenched TNFα-derived peptide substrate; 15 min preincubation
# T2 construct: made in house; host or cells: HEK293/T17
# T2 sequence (Q96DB2 1-347): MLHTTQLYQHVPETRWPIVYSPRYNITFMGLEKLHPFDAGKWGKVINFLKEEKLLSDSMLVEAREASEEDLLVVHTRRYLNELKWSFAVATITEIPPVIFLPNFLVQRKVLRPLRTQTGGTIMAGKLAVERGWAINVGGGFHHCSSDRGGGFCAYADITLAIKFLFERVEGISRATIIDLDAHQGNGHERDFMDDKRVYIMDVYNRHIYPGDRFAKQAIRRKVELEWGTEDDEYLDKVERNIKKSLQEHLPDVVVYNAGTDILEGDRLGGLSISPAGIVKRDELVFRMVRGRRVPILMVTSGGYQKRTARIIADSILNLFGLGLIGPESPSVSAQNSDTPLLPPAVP
# Procedure: as §1, §2
Compound,IC50 [1],IC50 [2],fold more potent compared to the hydrazide product 4 [1]
CS(=O)(=O)N(Cc1ccc(C(=O)NN)cn1)c1cccc(Cl)c1 [compound 4],2.16 ± 0.392 µM,> 20 µM,–
CS(=O)(=O)N(Cc1ccc(C(=O)NNC(=O)C(F)(F)F)cn1)c1cccc(Cl)c1 [compound 5],10.8 µM,–,–
CS(=O)(=O)N(Cc1ccc(-c2nnc(C(F)F)o2)cn1)c1cccc(Cl)c1 [compound 8],–,> 20 µM,approximately 1000 fold

# Second part, led by results:
IC50 [1],IC50 [2],Compound,fold more potent compared to the hydrazide product 4 [1]
14.5 µM,–,CS(=O)(=O)N(Cc1ccc(C(=O)NNC(=O)C(F)F)cn1)c1cccc(Cl)c1 [compound 6],–
0.0146 ± 0.008 µM,> 20 µM,CS(=O)(=O)N(Cc1ccc(-c2nnc(C(F)(F)F)o2)cn1)c1cccc(Cl)c1 [compound 7],~150 fold
